Entries after “also recorded” stand apart in the source; their conditions may differ.
How the values were obtained:
[1] = tested on: paclitaxel-induced peripheral neuropathic pain in rats; experiment: Reversal of paclitaxel-induced peripheral neuropathic pain, paw withdrawal threshold, chronic administration (Example 6); assay type: in vivo, Male Sprague Dawley rats; settings: for PWT compared to vehicle (in words): days 14, 21 and 28; for PWT after cessation of treatment (in words): 100 mg/kg orally, day 35, one week after cessation of treatment
Procedure: (§1) Male Sprague Dawley rats from Envigo were used in the study. Animals were received at approximately 250 g and housed 3 per cage upon arrival. All rats were examined, handled, and weighed prior to initiation of the study to assure adequate health and suitability. During the course of the study, 12/12 light/dark cycles was maintained. The room temperature was be maintained between 20 and 23° C. with a relative humidity maintained around 50%. Chow and water was provided ad libitum for the duration of the study. All testing was performed during the animal's light cycle phase.
(§2) Paclitaxel (2 mg/kg) was purchased from Biolyse Pharma and injected i.p. on four alternate days (day 1, 3, 5 and 7) for a total of 4 injections at a dose volume of 1 mL/kg.
(§3) Gabapentin (100 mg/kg) was dissolved in saline and administered orally at a dose volume of 1 mL/kg. For prevention study, gabapentin was administered on day 14, sixty minutes prior to test. For reversal study, gabapentin was administered once daily for 2 weeks. On test days it was administered 60 minutes prior to test.
Reversal study: MIN-117 (1, 3 and 10 mg/kg) was formulated in 0.5% (w/v) hydroxypropylmethyl cellulose (HPMC) 8°-120 centipoises in water and administered i.p once daily for 2 weeks at a dose volume of 1 mL/kg. On test days, MIN-117 was administered 2 hours prior to test.
(§4) Rats were administered paclitaxel (2 mg/kg) on four alternate days (days 1, 3, 5 and 7). Baseline and post treatment Paw Withdrawal Threshold (PWT) were evaluated using von Frey filaments (Semmes-Weinstein filaments, Stoelting, Wood Dale, Ill., USA) of varying stiffness (0.4, 0.7, 1.2, 2.0, 3.6, 5.5, 8.5, 10, 15, 26 g). Animals were placed on a perforated metallic platform and allowed to acclimate to their surroundings for a minimum of 15 minutes before each test session. Each filament was presented perpendicular to the plantar surface with sufficient force to cause slight buckling against the paw, and then held until a positive response is noted (paw sharply withdrawn). As described by Chaplan et al. 1994, once the threshold was crossed, the 2 responses straddling the threshold are retrospectively designated as the first 2 responses. Four additional responses were measured to stimuli varied sequentially up or down based on the animal's response. The 6 responses in the immediate vicinity of the threshold were used to calculate the 50% g threshold: 50% g threshold=(10^[Xf+k*d])/10000 Xf is the final filament used (in log units). The parameter k is from the Appendix 1 in Chaplan and was determined by the pattern of the von Frey responses (e.g. OXOXOX where ‘O’ indicates no response and ‘X’ denotes a withdrawal). The parameter d is the difference between stimuli which Chaplan used a constant d=0.224. To accommodate for the use of the 10 g and 26 g filaments, the exact difference between stimuli were used.
(§5) PWT was measured according to the Schematics in FIG. 9 (prevention) and FIG. 10 (reversal study).
Data was analyzed by analysis of variance (ANOVA) followed by post-hoc comparisons where appropriate. An effect will be considered significant if p<0.05. Data was represented as the mean and standard error to the mean (s.e.m). Statistical outliers that fell above or below 2 standard deviations of the mean were identified but not removed from the final analysis.

[2] = tested on: paclitaxel-induced peripheral neuropathic pain in rats; experiment: Prevention of paclitaxel-induced peripheral neuropathic pain, paw withdrawal threshold, chronic administration (Example 6); assay type: in vivo, Male Sprague Dawley rats; settings: 100 mg/kg orally on day 14, sixty minutes prior to test (acute)
Procedure: as §1, §2, §3
Prevention study: MIN-117 (10 mg/kg) was formulated in 0.5% (w/v) hydroxypropylmethyl cellulose (HPMC) 8°-120 centipoises in water and was administered i.p once daily for 7 or 14 days at a dose volume of 1 mL/kg. On test days, MIN-117 was administered 2 hours prior to test.
as §4, with “The 6 responses in the immediate vicinity of the threshold were used to calculate the 50% g threshold: 50% g threshold=(10^[Xf+k*d])/10000 Xf is the final filament used (in log units).” left out, “The parameter d is the difference between stimuli which Chaplan used a constant d=0.224. To accommodate for the use of the 10 g and 26 g filaments, the exact difference between stimuli were used.” left out
as §5
Data was analyzed by analysis of variance (ANOVA) followed by post-hoc comparisons where appropriate. […]

[3] = tested on: chemotherapy-induced peripheral neuropathic pain in rats; experiment: Paclitaxel-induced peripheral neuropathic pain, paw withdrawal threshold with von Frey filaments, single administration (Example 5); assay type: in vivo, Male Sprague Dawley rats
Procedure: Assessment of neuropathic pain using von Frey filaments was performed. Rats were administered paclitaxel (2 mg/kg) on four alternate days (days 1, 3, 5 and 7). Baseline and post treatment paw withdrawal thresholds (PWT) were evaluated using von Frey filaments (Semmes-Weinstein filaments, Stoelting, Wood Dale, Ill., USA) of varying stiffness (0.4, 0.7, 1.2, 2.0, 3.6, 5.5, 8.5, 10, 15, 26 g). Animals were placed on a perforated metallic platform and allowed to acclimate to their surroundings for a minimum of 15 minutes before each test session. Each filament was presented perpendicular to the plantar surface with sufficient force to cause slight buckling against the paw, and then held until a positive response is noted (paw sharply withdrawn). As described by Chaplan, S. R. et al. “Qualitative Assessment of Tactile Allodynia in the Rat Paw” Journal of Neuroscience Methods, 53 (1994), 55-63 (“Chaplan”), once the threshold was crossed, the 2 responses straddling the threshold are retrospectively designated as the first 2 responses. Four additional responses were measured to stimuli varied sequentially up or down based on the animal's response. The 6 responses in the immediate vicinity of the threshold were used to calculate the 50% g threshold: 50% g threshold=(10^[Xf+k*d])/10000
Xf is the final filament used (in log units). The parameter k is from the Appendix 1 in Chaplan and was determined by the pattern of the von Frey responses (e.g. OXOXOX where ‘O’ indicates no response and ‘X’ denotes a withdrawal). The parameter d is the difference between stimuli which Chaplan used a constant d=0.224. To accommodate for the use of the 10 g and 26 g filaments, the exact difference between stimuli were used.
as §1, with “(from Envigo, Ind., USA)” for “from Envigo”, “12 h/12 h” for “12/12”, “phase. Every effort was made to minimize suffering of animals. Rats with baseline PWT less than 12 g were not included in the study. Rats were balanced by body weight and by their pre-paclitaxel PWT values. ANOVA found no significant differences between the treatment groups.” for “phase.”
Paclitaxel was purchased from Biolyse Pharma (Ontario, Canada) and was injected i.p. (2 mg/kg) on four alternate days (day 1, 3, 5 and 7) for a total of 4 injections at a dose volume of 1 mL/kg.
Rats were subsequently balanced and assigned to treatment groups based on post-paclitaxel PWT values. On test day, PWT was assessed two hours post vehicle or MIN-117 injections and one hour after gabapentin administration.
Gabapentin was purchased from Toronto Research Chemicals and was dissolved in saline and administered orally 60 minutes prior to test at a dose volume of 1 mL/kg. MIN-117 (1, 3 and 10 mg/kg), formulated in 0.5% (w/v) hydroxypropylmethylcellulose (HPMC, Sigma-Aldrich), was administered i.p. at a dose volume of 1 mL/kg. MIN-117 was administered 2 hours prior to test.

[4] = Body weight during the chemotherapy induced neuropathic pain study (Example 5); assay type: in vivo, Male Sprague Dawley rats; settings: paclitaxel days 1, 3, 5, 7; test compound on day 14; repeated measures ANOVA
Procedure: as §1, with “(from Envigo, Ind., USA)” for “from Envigo”, “12 h/12 h” for “12/12”, “phase. Every effort was made to minimize suffering of animals. Rats with baseline PWT less than 12 g were not included in the study. Rats were balanced by body weight and by their pre-paclitaxel PWT values. ANOVA found no significant differences between the treatment groups.” for “phase.”

[5] = tested on: paclitaxel-induced neuropathy in rats; experiment: Other antidepressants in paclitaxel-induced neuropathy, paw withdrawal threshold (Example 7); assay type: in vivo; settings: 60 min. following administration
Procedure: Two classes of antidepressants were also evaluated in Paw Withdrawal Threshold (PWT) experiments: duloxetine, a serotonin norepinephrine reuptake inhibitor, and amitriptyline, a tricyclic antidepressant.
(§6) On day 22, post-paclitaxel administration (left-most columns in FIG. 16 correspond to rats not administered paclitaxel), rats were administered vehicle (second columns from left in FIG. 16) or duloxetine (orally) and PWT was assessed 60 min. following injection. Data represents mean±s.e.m. (* p<0.05 vs. vehicle/vehicle).
as §6, with “27,” for “22,”, “17” for “16”, “17)” for “16)”, “amitriptyline” for “duloxetine”, “vehicle/vehicle, #p<0.05 vs. paclitaxel/vehicle).” for “vehicle/vehicle).”

## Cc1nnc(-c2cc3c(OC[C@@H](O)CN4CCC(c5ccc(Cl)c(Cl)c5)CC4)cccc3o2)o1 [Compound I, (2S)-1-(4-(3,4-dichlorophenyl)piperidin-1-yl)-3-((2-(5-methyl-1,3,4-oxadiazol-2-yl)benzofuran-4-yl)oxy)propan-2-ol]
[1]; 1 mg/kg i.p. once daily for 2 weeks, 2 hours post dosing
  PWT compared to vehicle (in words): significant increases in pain with threshold
[1]; 3 mg/kg i.p. once daily for 2 weeks, 2 hours post dosing
  PWT compared to vehicle (in words): significant increases in pain with threshold
[1]; 10 mg/kg i.p. once daily for 2 weeks, 2 hours post dosing
  PWT compared to vehicle (in words): significant increases in pain with threshold

## NCC1(CC(=O)O)CCCCC1 [Gabapentin, reference compound]
[2]
  PWT compared to vehicle (in words): significant increase in PWT; also recorded: significantly higher PWT
[1]; 100 mg/kg orally once daily for 2 weeks (chronic), 1 hour post dosing
  PWT compared to vehicle (in words): significant increase in PWT; also recorded: significantly higher PWT
[1]
  PWT after cessation of treatment (in words): returned to vehicle levels
[1]; listed as gabapentin
  PWT after cessation of treatment (in words): no significant effect on PWT
[3]; Day 14 after first paclitaxel, administered orally 60 minutes prior to test
  Paw withdrawal threshold (PWT) compared to vehicle (in words): significant increase in PWT
[3]; Paclitaxel + Gabapentin (100 mg/kg), oral, 60 minutes prior to test, Count 12
  Paw withdrawal threshold (PWT), Day 14 Avg., Mean: 19.633 g
[3]; Paclitaxel + Vehicle, Paclitaxel + Gabapentin (100 mg/kg)
  Mean Diff. of Day 14 Avg. PWT, Fisher's PLSD: −15.759
[4]
  Body weight during the study, between groups (in words): no significant difference between groups

## CN(C)CCC=C1c2ccccc2CCc2ccccc21 [amitriptyline]
[5]; 3 mg/kg orally, day 27 post-paclitaxel
  Effect on PWT in paclitaxel-treated rats (in words): not found to reverse paclitaxel-induced neuropathy
[5]; 10 mg/kg orally, day 27 post-paclitaxel
  Effect on PWT in paclitaxel-treated rats (in words): not found to reverse paclitaxel-induced neuropathy
[5]; 30 mg/kg orally (highest dose tested), day 27 post-paclitaxel
  Effect on PWT in paclitaxel-treated rats (in words): only partially reversed

## CNCC[C@H](Oc1cccc2ccccc12)c1cccs1 [duloxetine]
[5]; 3 mg/kg orally, day 22 post-paclitaxel
  Effect on PWT in paclitaxel-treated rats (in words): no effect on PWT
[5]; 10 mg/kg orally, day 22 post-paclitaxel
  Effect on PWT in paclitaxel-treated rats (in words): no effect on PWT
[5]; 30 mg/kg orally, day 22 post-paclitaxel
  Effect on PWT in paclitaxel-treated rats (in words): no effect on PWT
